Test results taken from the CheMixHub viscosity set.

Assay: xn = mol fraction of the nth substance listed

C[N+](C)(C)CCO.[Cl-] + CN(CCO)CCO
viscosity [mPa·s], 101 kPa
Conditions	x1 = 0.091	x1 = 0.111	x1 = 0.143
293.15 K	54.54	126.3	139.8
313.15 K	20.45	40.89	46.55

O=C(O)CCC(=O)O + CCCO
101 kPa
Conditions	viscosity [mPa·s]
308.15 K, x1 = 0.0284	1.872
313.15 K, x1 = 0.0284	1.657
313.15 K, x1 = 0.03	1.657
313.15 K, x1 = 0.037	1.72
313.15 K, x1 = 0.043	1.777
313.15 K, x1 = 0.0435	1.888
313.15 K, x1 = 0.048	1.888
318.15 K, x1 = 0.0284	1.492
318.15 K, x1 = 0.0435	1.635
323.15 K, x1 = 0.0284	1.326
323.15 K, x1 = 0.0435	1.462

OCCOCCO + CS(C)=O
308.15 K, 101 kPa
Conditions	viscosity [mPa·s]
x2 = 0.0978	16.69
x2 = 0.1794	15.85
x2 = 0.2569	14.94
x2 = 0.3945	13.49
x2 = 0.4797	12.36
x2 = 0.5804	10.83
x2 = 0.6748	8.995
x2 = 0.7945	6.227
x2 = 0.9146	3.442

CC(F)F + FC(F)C(F)(F)F
viscosity [mPa·s], 101 kPa
Conditions	x2 = 0.248	x2 = 0.504	x2 = 0.758
298.15 K	0.1447	0.1487	0.1533
313.15 K	0.1172	0.1234	0.13

NCCO.O=CO + O
viscosity [mPa·s], 101 kPa
Conditions	x1 = 0.0088	x1 = 0.0186	x2 = 0.8561	x2 = 0.8993	x2 = 0.9327	x2 = 0.9591	x2 = 0.9712
293.15 K	1.23	1.29	3.936	2.814	2.172	1.842	1.482
298.15 K	1.08	1.17	3.51	2.52	1.914	1.614	1.35
303.15 K	0.99	1.05	3.12	2.28	1.716	1.386	1.23

C=C(C)C(=O)OCCCCCCC + CCCCCC
viscosity [mPa·s], 101 kPa
Conditions	x1 = 0.002	x1 = 0.005	x1 = 0.01	x1 = 0.02
303 K	0.2814	0.2918	0.2946	0.3052
313 K	0.2567	0.2692	0.2692	0.2801
323 K	0.2346	0.2442	0.247	0.2568

Cc1ccc(S(=O)(=O)[O-])cc1.[Na+] + O
viscosity [mPa·s], 101 kPa
Conditions	x1 = 9e-05	x1 = 0.00018	x1 = 0.0009	x1 = 0.0018	x1 = 0.00448	x1 = 0.00893	x1 = 0.0133	x1 = 0.0177
298.15 K	0.899	0.9	0.916	0.941	1.002	1.113	1.235	1.368
318.15 K	0.598	0.599	0.609	0.626	0.661	0.728	0.799	0.879

Fc1ccccc1 + O=CN1CCOCC1
viscosity [mPa·s], 101 kPa
Conditions	x2 = 0.0946	x2 = 0.1904	x2 = 0.2873	x2 = 0.3854	x2 = 0.4847	x2 = 0.5853	x2 = 0.687	x2 = 0.79	x2 = 0.8944
303.15 K	0.72	0.957	1.245	1.595	2.028	2.579	3.265	4.113	5.175
308.15 K	0.677	0.895	1.157	1.466	1.846	2.325	2.919	3.64	4.539
313.15 K	0.641	0.845	1.079	1.361	1.711	2.139	2.669	3.314	4.111

CC(O)C(C)O (centres undefined) + O=C1CCCN1
Conditions	viscosity [mPa·s]
308.15 K, 101 kPa, x2 = 0.5898	14.65

Cc1ccc(C)cc1 + CCCCO
Conditions	viscosity [mPa·s]
298.15 K, 101.33 kPa, x2 = 0.1504	0.636
298.15 K, 101.33 kPa, x2 = 0.2649	0.692
298.15 K, 101.33 kPa, x2 = 0.3971	0.797
298.15 K, 101.33 kPa, x2 = 0.5009	0.914
298.15 K, 101.33 kPa, x2 = 0.585	1.047
298.15 K, 101.33 kPa, x2 = 0.6932	1.275
298.15 K, 101.33 kPa, x2 = 0.7688	1.493
308.15 K, 101 kPa, x2 = 0.0495	0.551
308.15 K, 101 kPa, x2 = 0.1136	0.553
308.15 K, 101 kPa, x2 = 0.206	0.562
308.15 K, 101 kPa, x2 = 0.3224	0.592
308.15 K, 101 kPa, x2 = 0.4051	0.647
308.15 K, 101 kPa, x2 = 0.5098	0.724
308.15 K, 101 kPa, x2 = 0.6322	0.796
308.15 K, 101 kPa, x2 = 0.7241	0.937
308.15 K, 101 kPa, x2 = 0.8216	1.118
308.15 K, 101 kPa, x2 = 0.9035	1.327
308.15 K, 101 kPa, x2 = 0.9621	1.619

CCCCCCCCCCCCO + C=CC(=O)OC
viscosity [mPa·s], 101.3 kPa
Conditions	x2 = 0.1127	x2 = 0.3078	x2 = 0.3842	x2 = 0.5147	x2 = 0.6206	x2 = 0.7884	x2 = 0.8506	x2 = 0.9093	x2 = 0.9554	x2 = 0.9794
298.15 K	11.57	5.722	4.4	2.703	1.891	0.992	0.785	0.629	0.53	0.484
308.15 K	8.309	4.391	3.385	2.157	1.515	0.833	0.668	0.549	0.473	0.438

[Cl-].[Cl-].[Cl-].[Cl-].[Ge+4] + COc1ccccc1
viscosity [mPa·s], 101 kPa
Conditions	x2 = 0.2185	x2 = 0.3554	x2 = 0.4923	x2 = 0.6922	x2 = 0.8481
293.15 K	0.65	0.688	0.734	0.836	0.963
303.15 K	0.591	0.621	0.654	0.732	0.836
313.15 K	0.535	0.555	0.598	0.654	0.731

CCCCCCCCCCCCCCCCCC(=O)OC + ClC=C(Cl)Cl
viscosity [mPa·s], 101 kPa
Conditions	x1 = 0.05	x1 = 0.1	x1 = 0.15	x1 = 0.2	x1 = 0.25	x1 = 0.3
298 K	0.77	1.04	1.37	1.73	2.09	2.61
303 K	0.74	0.98	1.3	1.6	1.9	2.39
308 K	0.71	0.93	1.21	1.5	1.77	2.2
313 K	0.68	0.89	1.14	1.4	1.66	2.01

CCCOC(=O)CCC + CCCCCCCCCCCCCC
298.15 K, 101.33 kPa
Conditions	viscosity [mPa·s]
x2 = 0.0852	0.852
x2 = 0.1135	0.877
x2 = 0.154	0.911
x2 = 0.2133	0.967
x2 = 0.2994	1.054
x2 = 0.3667	1.127
x2 = 0.4774	1.25
x2 = 0.6061	1.413
x2 = 0.7085	1.558
x2 = 0.8446	1.786
x2 = 0.9178	1.909

Cc1ccc(C)cc1 + CC(C)=O
307.35 K, 101.33 kPa
Conditions	viscosity [mPa·s]
x2 = 0.1403	0.5
x2 = 0.4308	0.429
x2 = 0.5768	0.4
x2 = 0.6298	0.385
x2 = 0.7285	0.353
x2 = 0.9118	0.311

O.O.O.O.O.O=S(=O)([O-])[S-].[Na+].[Na+] + N#C[S-].[Na+]
101.33 kPa, x2 = 0.3
Conditions	viscosity [mPa·s]
308 K	30.26
313 K	23.84
318 K	19.42
323 K	15.54

Cc1ccc(C)cc1 + CCC(C)O
308.15 K, 101 kPa
Conditions	viscosity [mPa·s]
x2 = 0.0429	0.553
x2 = 0.1028	0.562
x2 = 0.2013	0.591
x2 = 0.3192	0.645
x2 = 0.4044	0.721
x2 = 0.5085	0.792
x2 = 0.6631	0.932
x2 = 0.7494	1.111
x2 = 0.8285	1.32
x2 = 0.9012	1.61
x2 = 0.9684	1.782

O=Cc1ccccc1 + CS(C)=O
viscosity [mPa·s], 101.33 kPa
Conditions	x2 = 0.1	x2 = 0.2	x2 = 0.3	x2 = 0.4	x2 = 0.5	x2 = 0.6	x2 = 0.7	x2 = 0.8	x2 = 0.9
298.15 K	1.443	1.51	1.562	1.62	1.679	1.739	1.801	1.864	1.938
308.15 K	1.22	1.266	1.314	1.362	1.411	1.461	1.51	1.56	1.609
318.15 K	1.066	1.101	1.135	1.17	1.207	1.243	1.28	1.317	1.354

CCCC[N+](CCCC)(CCCC)CCCC.[Cl-] + CC(C)C[C@H](N)C(=O)O
Conditions	viscosity [mPa·s]
313.15 K, 100 kPa, x1 = 0.9	943

CC(O)C(C)O (centres undefined) + CN(C)C=O
308.15 K, 101 kPa
Conditions	viscosity [mPa·s]
x1 = 0.0509	0.724
x1 = 0.1003	0.859
x1 = 0.1898	1.033
x1 = 0.2855	1.36
x1 = 0.3729	1.788
x1 = 0.4785	2.544
x1 = 0.5949	5.332
x1 = 0.6808	8.504
x1 = 0.7219	10.79
x1 = 0.8883	24.97
x1 = 0.942	34.78

Cc1ccc(C)cc1 + C1CCOC1
303.15 K, 101.33 kPa
Conditions	viscosity [mPa·s]
x2 = 0.1057	0.564
x2 = 0.2037	0.557
x2 = 0.2809	0.552
x2 = 0.4052	0.544
x2 = 0.5256	0.53
x2 = 0.6045	0.518
x2 = 0.7062	0.501
x2 = 0.8021	0.485
x2 = 0.9001	0.462

CCCCCCCCN + CCCCN(CCCC)CCCC
viscosity [mPa·s], 101 kPa
Conditions	x2 = 0.1005	x2 = 0.202	x2 = 0.3961	x2 = 0.5022	x2 = 0.5949	x2 = 0.7991	x2 = 0.8964
303.15 K	1.149	1.138	1.126	1.125	1.127	1.14	1.151
313.15 K	0.9719	0.9612	0.9507	0.9506	0.9532	0.97	0.9821

CCCCCCCCCCCCO + CCCCCCCCO
viscosity [mPa·s], 101.8 kPa
Conditions	x2 = 0.1377	x2 = 0.3798	x2 = 0.589	x2 = 0.7701	x2 = 0.9281
298.15 K	15.08	12.91	11.11	9.509	8.204
308.15 K	10.21	8.958	7.745	6.704	5.873
318.15 K	7.201	6.357	5.553	4.856	4.284

CC(=O)OCC[N+](C)(C)C.[Cl-] + CC(=O)CCC(=O)O
101 kPa, x2 = 0.75
Conditions	viscosity [mPa·s]
293.15 K	164.5
303.15 K	85.88
313.15 K	46.75
323.15 K	31.58
